Assay results published in article PMC9686339, “Bioassay-guided isolation of Fenghuang Dancong tea constituents with α-glucosidase inhibition activities” (Frontiers in Nutrition, 2022).
Like-named read-outs stand apart in the source and are kept apart here.

Tests used:
HepG2 cells = experiment: Glucose consumption assay in HepG2 cells; format: cell-based; conditions: 0.18 mg/L, 24 h, medium with 12.0 mM glucose
Method: Here, HepG2 cells were used to evaluate the glucose consumption of the isolated compounds according to a method described in the literature ([12]). Briefly, HepG2 cells were cultured for 24 h. Subsequently, they were transferred from DMEM medium (containing FBS, PEM and SM) to another DMEM medium (containing 12.0 mM glucose). Then, HepG2 cells and the test samples with a concentration of 0.18 mg/L were incubated together for another 24 h. The glucose consumption was obtained by measuring the glucose content of the cell culture supernatant with a glucose kit.

α-glucosidase [1] = experiment: α-glucosidase inhibition assay (p-NPG substrate); format: biochemical; conditions: pH 6.8, 37°C
Method: This experiment was carried out according to the literature ([11]). Briefly, the test sample was dissolved in solutions (SS) with DMSO as the solvent. p-NPG and α-glucosidase were, respectively mixed with phosphate buffer (PB, 60 mM phosphate, pH 6.8) and used as stock solutions. The concentration of α-glucosidase solution (GS) was 0.5 U/ml and that of p-NPG solution (NS) was 5 mM. In addition, four different solutions (A, B, C and D) were prepared: Solution A contained 112 μl PB, 20 μl GS, and 8 μl SS; Solution B contained 112 μl PB and 20 μl GS; Solution C contained 112 μl PB, 8 μl SS, and 20 μl GS; and Solution D contained 132 μl PB and 8 μl DMSO. After starting each reaction at 37°C, p-nitrophenol was quantified by measuring the absorbance at 405 nm with a UV–vis spectrophotometer. The inhibition rate was calculated according to equation (1):
(1) Inhibition rate (%)= [((Aas − Bas)[…]) / (Aas −Bas)][…],
where Aas, Bas, Cas and Das are the absorbances of solution A, B, C and D, respectively. The sample concentration that inhibited 50% α-glucosidase activity was defined as the IC50value.

α-glucosidase [2] = molecular target: α-glucosidase; parameters: method as in PMID 28554631; conditions: constituent of Yingde black tea; read-out: IC50 of α-glucosidase inhibition; cited from earlier work
[3] = Liposolubility (qualitative observation); format: physicochemical
α-glucosidase [4] = experiment: Enzyme kinetic experiments on α-glucosidase (reversibility, Lineweaver-Burk plots, secondary replot); format: biochemical
Description: The reversibility of enzyme inhibition can be determined according to the influence of sample concentration and enzyme concentration on enzyme activity. […] This implied that 1 was a reversible α-glucosidase inhibitor ([16]). The reversibility of the inhibition of α-glucosidase by different flavonoids has been studied extensively ([17]). However, definitive conclusions cannot been drawn about the relationship between the structure of flavonoids and the reversibility of the inhibition of α-glucosidase ([18]).
The double-reciprocal diagram, based on a Lineweaver–Burk plot, is widely used to investigate inhibitory kinetics of compounds on enzymes. […] Thus, the complex formed by the combination of compound 1 with substrate and α-glucosidase led to the inactivation of the latter. In addition, the number of binding sites between the compound and α-glucosidase can be obtained by a second linear fitting of the concentration of compound 1 and Y-intercept, which is shown in Figure 4D. […] Through further calculation, the binding constant was obtained as 4.58 × 10^4 L/mol. There were obvious differences in the inhibition mechanism of different types of flavonoids on α-glucosidase. […] The above facts indicate that the mechanisms of action of flavonoids on glucosidase are diverse and complex.

α-glucosidase [5] = tested on: α-glucosidase; parameters: method as in PMID 30236734; conditions: cited from earlier work

Molecule | Glucose consumption (HepG2 cells) | IC50 (α-glucosidase [1]) | Liposolubility [3] | further results
ameridone E [compound 5] | 9.06 ± 0.15 mmol/L | 81.7 ± 2.72 µM |  | 
amelliaone A |  |  |  | IC50 (α-glucosidase [2]): 10.2 µM
CC1=CC[C@H](C)C(c2c(O)cc3occ(-c4ccc(O)cc4)c(=O)c3c2O)=CC1 [compound 3, (S)-6-(4,7-dimethylcyclohepta-1,4-dien-1-yl)-5,7-dihydroxy-3-(4-hydroxyphenyl)−4H-chromen-4-one] | 8.98 ± 0.39 mmol/L | 56.4 ± 2.11 µM | slightly inferior to the others | 
COc1ccc([C@H]2CC(=O)c3c(cc(O)c(/C=C(/C)CCC=C(C)C)c3O)O2)cc1O [compound 1, (R, z)-6-(2,6-xylheptane-1,5-dien-1-yl)-5,7-dihydroxy-2-(3-hydroxy-4-methoxyphenyl) chroman-4-one] | 10.58 ± 0.18 mmol/L | 7.51 µM | excellent | Type of α-glucosidase inhibition (α-glucosidase [4]; Lineweaver-Burk plot): non-competitive; Binding constant with α-glucosidase (α-glucosidase [4]; calculated from secondary replot): 45800 L/mol; Reversibility of the inhibition of α-glucosidase (α-glucosidase [4]; enzyme concentration vs enzyme activity at a series of sample dosages): reversible; Number of binding sites with α-glucosidase (α-glucosidase [4]; secondary replot of Y-intercept vs concentration): one; melting point: 165 °C
COc1ccc([C@H]2CC(=O)c3c(cc(O)c(/C=C(\C)CCC=C(C)C)c3O)O2)cc1O [compound 2, (R,E)-6-(2,6-dimethylhepta−1,5-dien-1-yl)-5,7-dihydroxy-2-(3-hydroxy-4-methoxyphenyl) chroman-4-one] | 9.40 ± 0.12 mmol/L | 33.2 ± 2.21 µM | almost the same | 
O=c1c(O)c(-c2ccccc2)oc2cc(O)cc(O)c12 [galangin] |  |  |  | Number of binding sites with α-glucosidase (α-glucosidase [5]): one; Type of α-glucosidase inhibition (α-glucosidase [5]): mixed inhibition of competitive inhibition and non-competitive inhibition
ameridone D [compound 4] | 8.30 ± 0.33 mmol/L | 76.5 ± 3.52 µM |  | 
